The text below walks through data of patent US4966907A, “6-substituted 5-hydroxy-2,3-dihydrobenzofurans as inhibitors of leukotriene biosynthesis” (Merck & Co., Inc., priority 1988, dated 1990).

Molecules are shown by their SMILES. Like-named read-outs stand apart in the source and are kept apart here.

Assay [1] relates to LTB4 production in isolated human polymorphonuclear leucocytes (PMN). In words: inhibition of LTB4 production in isolated human polymorphonuclear leukocytes (PMN), A23187-stimulated, radioimmunoassay. The class given is cell-based. The note with it: Leucocyte, 5 min, 5 min at 37° C. The source says: A. Preparation of Human PMN
Human blood is obtained by antecubital venepuncture from consenting volunteers who denied having taken medication within the previous 7 days. The blood is immediately added to 10% (v/v) trisodium citrate (0.13M) or 5% (v/v) sodium heparin (1000 IU/mL). PMNs are isolated from anticoagulated blood by dextran sedimentation and centrifugation through Ficoll Hypaque (specific gravity 1.077), essentially as described by Boyum. (Boyum, A., Scand. J. Clin. Lab. Invest 1968, 21 (Supp 97), 77). Contaminating erythrocytes are removed by lysis following exposure to ammonium chloride (0.16M) in Tris buffer (pH 7.65), and the PMNs resuspended at 5×10^5 cells/mL in HEPES (15 mM) buffered Hanks balanced salt solution containing Ca^2+ (1.4 mM) and Mg^2+ (0.7 mM), pH 7.4. Viability is assessed by Trypan blue exclusion and is typically greater than 98%.
B. Generation and Radiommumoassay of LTB4
PMNs 0.5 mL; 2.5×10^5 cells) are placed in plastic tubes and incubated (37° C., 2 min) with test compounds at the desired concentration or vehicle control (DMSO, final concentration 0.2%). The synthesis of leukotriene B4 (LTB4) is initiated by the addition of calcium ionophore A23187 (final concentration 10 μM) or vehicle on control samples and allowed to proceed for 5 minutes at 37° C. The reactions are then terminated by the addition of cold methanol (0.25 mL) and samples of the entire PMN reaction mixture are removed for radiommunoassay of LTB4.
Samples (50 μl) of authentic LTB4 of known concentration in radiommunoassay buffer (RIA) buffer (potassium phosphate 1 mM; disodium EDTA 0.1 mM; Thimerosal 0.025 mM; gelatin 0.1%, pH 7.3) or PMN reaction mixture diluted 1:1 with RIA buffer are added to reaction tubes.
Thereafter [3H]LTB4 (10 nCu in 100 μl RIA buffer) and LTB4 antiserum (100 μL of a 1:3000 dilution in RIA buffer) are added and the tubes vortexed. Reactants are allowed to equilibrate by incubation overnight at 4° C. To separate antibody bound from free LTB4, aliquots (50 μL) of activated charcoal (3% activated charcoal in RIA buffer containing 0.25% Dextran T-70) were added, the tubes vortexed, and allowed to stand at room temperature for 10 minutes prior to centrifugation (1500×g; 10 min; 4° C.). The supernatents containing antibody-bound LTB4 are decanted into vials and Aquasol 2 (4 mL) is added. Radioactivity is quantified by liquid scintillation spectrometry. […] The specificity of the antiserium and the sensitivity of the procedure have been described in detail elsewhere. (Rokach, J.; Hayes, E. C.; Girard, Y.; Lombardo. D. L.; Maycock, A. L.; Rosenthal, A. S.; Young, R. N.; Zamboni, R.; Zweerink, H. J. Prostaglandins Leukotrienes and Medicine 1984, 13, 21). The amount of LTB4 produced in test and control (approx. 20 ng/10^6 cells) samples are then calculated. Inhibitory dose response curves are constructed using a four-parameter algorithm and from these the IC50 values are determined.

Assay [2] relates to leukotriene biosynthesis in human polymorphonuclear leukocytes. The settings on record: known inhibitors of leukotriene biosynthesis; cited from earlier work.
Where [3] appears, read: Homo sapiens, calcium ionophore A23187 10 μM, 2.5×10^5 cells, read-out: Human Polymorphonuclear Leucocyte Activity IC50.
Where [4] appears, read: standard compounds, human PMN, A23187 10 μM, read-out: IC50 values for LTB4 inhibition.

Usually IC50 stands for the midpoint of a concentration-inhibition curve. In the case of `COC(=O)c1ccccc1OCCCOc1cc2c(cc1O)CCO2` [H O(CH2)3 OC6 H5-2-CO2 CH3, 2-(3-((2,3-dihydro-5-hydroxy-6-benzofuranyl)oxy)propoxy)benzoic acid methyl ester], the IC50 in assay [1] (setting [3]) was determined as 65 nM. Consider `Oc1cc2c(cc1SCCCc1ccccc1)OCC2` [H S(CH2)3 C6 H5, 2,3-dihydro-6-(3-phenylpropyl)thio-5-benzofuranol], for which, in assay [1] (setting [3]), the half-maximal inhibitory concentration (IC50) was 28 nM. Still for that read-out and setting: for `OCCc1ccc(OCCCc2cc3c(cc2O)CCO3)cc1` [H (CH2)3 OC6 H4-4-(CH2)2 OH, 2,3-dihydro-6-(3-(4-(2-hydroxyethyl)phenoxy)propyl)-5-benzofuranol] the value was 41 nM; for `COC(=O)c1cccc(OCCCOc2cc3c(cc2O)CCO3)c1` [H O(CH2)3 OC6 H5-3-CO2 CH3, 3-(3-((2,3-dihydro-5-hydroxy-6-benzofuranyl)oxy)propoxy)benzoic acid methyl ester], 56 nM.

Regarding `Oc1cc2c(cc1CCCOc1ccc(Cl)cc1)OCC2` [H (CH2)3 OC6 H4-4-Cl, 2,3-Dihydro-6-(3-(4-chlorophenoxy)propyl)-5-benzofuranol], the IC50 in assay [1] (setting [3]) was found to be 55 nM.

In the case of `Oc1cc2c(cc1OCCCc1ccccc1)OCC2` [H O(CH2)3 C6 H5, 2,3-dihydro-6-(3-phenylpropoxy)-5-benzofuranol], in assay [1] (setting [3]), the IC50 is 51 nM. With `O=C1CCN(c2ccccc2)N1` [phenidone, reference compound], in assay [1] (setting [4]), the IC50 amounted to 9250 nM. Besides, in assay [2], the “activity in the human polymorphonuclear leukocytes assay” value is “active”.

On to `Cc1c(O)c(CCCSc2ccccc2)cc2c1CCO2` [CH3 (CH2)3 SC6 H5, 2,3-dihydro-4-methyl-6-(3-(phenylthio)propyl)5-benzofuranol], for which the IC50 in assay [1] (setting [3]) turned out to be 19 nM. Same read-out and setting: the figure for `CCCc1cc2c(c(Br)c1O)CCO2` [Br CH2 CH3 CH3, 2,3-dihydro4-bromo-6-propyl-5-benzofuranol] is 49 nM; for `OCCc1cccc(OCCCc2cc3c(cc2O)CCO3)c1` [H (CH2)3 OC6 H4-3-(CH2)2 OH, 2,3-Dihydro-6-(3-(3-(2-hydroxyethyl)-phenoxy)propyl)-5-benzofuranol] it is 77 nM. Regarding `Oc1cc2c(cc1CCCOc1ccccc1)OCC2` [H (CH2)3 OC6 H5, 2,3-dihydro-6-(3-phenoxypropyl)-5-benzofuranol], in assay [1] (setting [3]), the IC50 worked out at 57 nM.

On to `Oc1cc2c(cc1CCCSc1ccccc1)OCC2` [H (CH2)3 SC6 H5, 2,3-dihydro-6-(3-(phenylthio)propyl)-5-benzofuranol], for which, in assay [1] (setting [3]), the IC50 is 19 nM. Still for that read-out and setting: the figure for `CCCc1ccc(OCCCc2cc3c(cc2O)CCO3)cc1` [H (CH2)3 OC6 H4-4-(CH2)2 CH3, 2,3-dihydro 6-(3-(4-propylphenoxy)propyl)-5-benzofuranol] is 9 nM.

As to `Oc1cc2c(cc1CCCOc1ccc(F)cc1)OCC2` [H (CH2)3 OC6 H4-4-F, 2,3-dihydro-6-(3-(4-fluorophenoxy)propyl)5-benzofuranol], in assay [1] (setting [3]), the IC50 was 28 nM. The same measure, in the same setting: for `Oc1cc2c(cc1SCCc1ccccc1)OCC2` [H S(CH2)2 C6 H5, 2,3-dihydro 6 (2 phenylethyl)thio-5-benzofuranol] the value was 66 nM. `COC(=O)Cc1ccc(OCCCOc2cc3c(cc2O)CCO3)cc1` [H O(CH2)3 OC6 H5-4-CH2 CO2 CH3, 4-(3-((2,3-dihydro-5-hydroxy-6-benzofuranyl)oxy)propoxy)benzeneacetic acid methyl ester]: the IC50 in assay [1] (setting [3]) came out at 72 nM. Consider `CC(Cc1ccc(O)c(O)c1)C(C)Cc1ccc(O)c(O)c1` (centres unmarked) [nordihydroguaiacetic acid, reference compound], for which, in assay [1] (setting [4]), the IC50 is 86 nM. The “activity in the human polymorphonuclear leukocytes assay” value in assay [2] is “active”. As to `COC(=O)c1ccc(OCCCOc2cc3c(cc2O)CCO3)cc1` [H O(CH2)3 OC6 H5-4-CO2 CH3, 4-(3-((2,3-dihydro-5-hydroxy-6-benzofuranyl)oxy)propoxy)benzoic acid methyl ester], the IC50 in assay [1] (setting [3]) was determined as 71 nM.
